According to patent US9790207B2, “Pan-genomic inhibitors of NS5A protein encoded by HCV, pharmaceutical compositions, intermediates for inhibitor synthesis, and their synthesis and application methods” (priority 2015, dated 2017):
Structures can show the parent of a compound that is named as a salt. Where two headings read alike, the source gives them in different places.

Assays:
[1] = Cytotoxicity, cell viability by ATPLite Kit; type: cell-based, human; settings: human, 10% FBS; for inhibition at 96 h: Huh7 cells (human hepatoma cell line), maximal inhibition, read-out: Cytotox gT1b 10% FBS max. inh.
Protocol: The cytotoxicity of the test compounds was studied in parallel using the same cell line, Huh7. Cell viability was determined using the ATPLite Kit (Perkin-Elmer, Boston, USA), according to manufacturer's instructions. 96-well black/transparent bottom plates were seeded with cells at a density of 7.5×10^3 cells per well in 50 μl medium. After 18 hours, compound treatment was initiated by adding 50 μl of compound dilution into the plates. Each compound dilution was tested in triplicates. The cells and inhibitors were then incubated for 96 hours at 37° C./5% CO2. The plates were washed twice with PBS (0.2 ml/well), and then lysed by adding lysis buffer, 0.05 ml/well (all reagents were included with the ATPLite Kit). After rocking for 5 min on a rocking platform, substrate buffer was added (0.05 ml/well). After additional 5-min incubation, the plates were kept in dark for 10 min, and the luminescence was read using TopCount NXT (Packard, Perkin Elmer). CC50 values for all test compounds were determined using XLfit 4.1 software (Table 2).

HCV gT1b replicon = experiment: HCV replicon assay, gT1b; type: cell-based, Hepatitis C virus (HCV); settings: Hepatitis C virus, GT1B, Huh-7, Huh7 replicon cells, mean value
Protocol: The HCV replicon assay was used to determine the antiviral activity of compounds of general formula 2 (test compounds). The test cell line used in the HCV Replicon Assay was the human hepatoma cell line Huh7 incorporating the HCV replicons synthesized by an outside vendor.
96-well plates were seeded with cells at a density of 7.5×10^3 cells per well in 50 μl of assay media. The compound stock solution was made up freshly in an assay medium (DMEM 1×, Cellgro; cat. #10-013-CV) as a 2× stock. A total of 11 serial 3-fold dilutions of test compounds were prepared from the 2× stock in the assay media ranging from 20 nM-0.2 pM final concentrations. At least 4 hours after seeding the cells, compound treatment was initiated by adding 50 μl of compound dilution to the plates. The final concentrations of compound therefore ranged from 10 nM to 0.1 pM when diluted 1:1 in culture media. The final DMSO concentration was 0.5%. Cells and inhibitors were incubated for 3 days at 37° C./5% CO2. The media was removed from the plates by gentle tapping. The cells were fixed with 100 μl 1:1 acetone:methanol for 1 minute, washed three times with PBS buffer, and then blocked with 150 μl/well 10% Fetal Bovine Serum (FBS) in PBS for 1 hour at room temperature. The cells were then washed three times with PBS buffer and incubated with 100 μl/well anti-hepatitis C core mAb (Affinity BioReagents; cat. # MA1-080, 1 mg/ml stock diluted 1:4,000 in 10% FBS-PBS) for 2 hours at 37° C. Then, the cells were washed three times with PBS and incubated with 100 μl/well HRP-Goat Anti-Mouse antibody (diluted 1:3.500 in 10% FBS-PBS) for 1 hour at 37° C. The cells were then washed three times with PBS and developed with an OPD solution, 100 μl/well (1 OPD tablet+12 ml citrate/phosphate buffer+5 μl 30% H2O2 per plate), for 30 minutes in the dark at room temperature. The reaction was stopped with 2N H2SO4 (100 μl/well), and the absorbance was measured at A490 X on a Victor^3 V 1420 multilabel counter (Perkin Elmer).

[2] = 10% FBS, read-out: gT1b 10% FBS, EC50 (pM) mean
[3] = 40% NHS, read-out: gT1b 40% NHS, EC50 (pM) mean

For `COC(=O)N[C@H](C(=O)N1CCC[C@H]1c1ncc(C#CC#Cc2ccc(-c3cnc([C@@H]4CCCN4C(=O)[C@@H](NC(=O)OC)C(C)C)[nH]3)cc2-c2ccccc2)[nH]1)C(C)C` [2(1)•2HCl, [(S)-1-((S)-2-{5-[4-(5-{2-[(S)-1-((S)-2-Methoxycarbonylamino-3-methyl-butyryl)-pyrrolidin-2-yl]-3H-imidazol-4-yl}-biphenyl-2-yl)-buta-1,3-diynyl]-1H-imidazol-2-yl}-pyrrolidine-1-carbonyl)-2-methyl-propyl]-carbamic acid methyl ester dihydrochloride], the inhibition at 96 h [1] was 42%, the EC50 (HCV gT1b replicon; [2]) was 1.79 pM and the EC50 (HCV gT1b replicon; [3]) was 12.4 pM.
With `COC(=O)N[C@H](C(=O)N1CCC[C@H]1c1ncc(C#CC#Cc2ccc(-c3cnc([C@@H]4CCCN4C(=O)[C@@H](NC(=O)OC)C(C)C)[nH]3)cc2-c2cccc(C(C)(C)C)c2)[nH]1)C(C)C` [2(2)•2HCl, [(S)-1-((S)-2-{5-[4-(3′-tert-Butyl-5-{2-[(S)-1-((S)-2-methoxycarbonylamino-3-methyl-butyryl)-pyrrolidin-2-yl]-3H-imidazol-4-yl}-biphenyl-2-yl)-buta-1,3-diynyl]-1H-imidazol-2-yl}-pyrrolidine-1-carbonyl)-2-methyl-propyl]-carbamic acid methyl ester dihydrochloride] the inhibition at 96 h [1] was 38%, the EC50 (HCV gT1b replicon; [2]) was 1.67 pM and the EC50 (HCV gT1b replicon; [3]) was 6.6 pM.
In the case of `COC(=O)N[C@H](C(=O)N1CCC[C@H]1c1ncc(C#CC#Cc2ccc(-c3cnc([C@@H]4CCCN4C(=O)[C@@H](NC(=O)OC)C(C)C)[nH]3)cc2-c2cccc(-c3ccccc3)c2)[nH]1)C(C)C` [2(3)•2HCl, [(S)-1-((S)-2-{5-[4-(5-{2-[(S)-1-((S)-2-Methoxycarbonylamino-3-methyl-butyryl)-pyrrolidin-2-yl]-3H-imidazol-4-yl}-[1,1′; 3′,1″]terphenyl-2-yl)-buta-1,3-diynyl]-1H-imidazol-2-yl}-pyrrolidine-1-carbonyl)-2-methyl-propyl]-carbamic acid methyl ester dihydrochloride], the inhibition at 96 h [1] is reported as 29%, the EC50 (HCV gT1b replicon; [2]) is reported as 1.24 pM and the EC50 (HCV gT1b replicon; [3]) is reported as 17.1 pM.
With `COC(=O)N[C@H](C(=O)N1CCC[C@H]1c1ncc(C#CC#Cc2ccc(-c3cnc([C@@H]4CCCN4C(=O)[C@@H](NC(=O)OC)C(C)C)[nH]3)cc2-c2ccc3ccccc3c2)[nH]1)C(C)C` [2(4)•2HCl, [(S)-1-((S)-2-{5-[4-(4-{2-[(S)-1-((S)-2-Methoxycarbonylamino-3-methyl-butyryl)-pyrrolidin-2-yl]-3H-imidazol-4-yl}-2-naphthalen-2-yl-phenyl)-buta-1,3-diynyl]-1H-imidazol-2-yl}-pyrrolidine-1-carbonyl)-2-methyl-propyl]-carbamic acid methyl ester dihydrochloride] the inhibition at 96 h [1] was 31%, the EC50 (HCV gT1b replicon; [2]) was 1.56 pM and the EC50 (HCV gT1b replicon; [3]) was 16.3 pM.
`COC(=O)N[C@H](C(=O)N1CCC[C@H]1c1ncc(-c2ccc(C#CC#Cc3cnc([C@@H]4CCCN4C(=O)[C@H](NC(=O)OC)c4ccccc4)[nH]3)c(-c3cccc(C(C)(C)C)c3)c2)[nH]1)C(C)C` [2(10)•2HCl, [(S)-1-((S)-2-{5-[3′-tert-Butyl-6-(4-{2-[(S)-1-((R)-2-methoxycarbonylamino-2-phenyl-acetyl)-pyrrolidin-2-yl]-3H-imidazol-4-yl}-buta-1,3-diynyl)-biphenyl-3-yl]-1H-imidazol-2-yl}-pyrrolidine-1-carbonyl)-2-methyl-propyl]-carbamic acid methyl ester dihydrochloride] showed an inhibition at 96 h [1] of 37%, an EC50 (HCV gT1b replicon; [2]) of 1.22 pM and an EC50 (HCV gT1b replicon; [3]) of 8.13 pM.
Molecule `COC(=O)N[C@H](C(=O)N1CCC[C@H]1c1ncc(-c2ccc(C#CC#Cc3cnc([C@@H]4CCCN4C(=O)[C@H](NC(=O)OC)c4ccccc4)[nH]3)c(-c3ccc(C(C)(C)C)cc3)c2)[nH]1)C(C)C` [2(11)•2HCl, [(S)-1-((S)-2-{5-[4′-tert-Butyl-6-(4-{2-[(S)-1-((R)-2-methoxycarbonylamino-2-phenyl-acetyl)-pyrrolidin-2-yl]-3H-imidazol-4-yl}-buta-1,3-diynyl)-biphenyl-3-yl]-1H-imidazol-2-yl}-pyrrolidine-1-carbonyl)-2-methyl-propyl]-carbamic acid methyl ester dihydrochloride] has an inhibition at 96 h [1] of 29%, an EC50 (HCV gT1b replicon; [2]) of 1.24 pM and an EC50 (HCV gT1b replicon; [3]) of 10.7 pM.
`COC(=O)N[C@H](C(=O)N1CCC[C@H]1c1ncc(-c2ccc(C#CC#Cc3cnc([C@@H]4CCCN4C(=O)[C@H](NC(=O)OC)c4ccccc4)[nH]3)c(-c3cccc(-c4ccccc4)c3)c2)[nH]1)C(C)C` [2(12)•2HCl, [(S)-1-((S)-2-{5-[6-(4-{2-[(S)-1-((R)-2-Methoxycarbonylamino-2-phenyl-acetyl)-pyrrolidin-2-yl]-3H-imidazol-4-yl}-buta-1,3-diynyl)-[1,1′;3′,1″]terphenyl-3-yl]-1H-imidazol-2-yl}-pyrrolidine-1-carbonyl)-2-methyl-propyl]-carbamic acid methyl ester dihydrochloride] showed an inhibition at 96 h [1] of 29%, an EC50 (HCV gT1b replicon; [2]) of 1.79 pM and an EC50 (HCV gT1b replicon; [3]) of 13.4 pM.
Molecule `COC(=O)N[C@H](C(=O)N1CCC[C@H]1c1ncc(-c2ccc(C#CC#Cc3cnc([C@@H]4CCCN4C(=O)[C@H](NC(=O)OC)c4ccccc4)[nH]3)c(-c3ccc(-c4ccccc4)cc3)c2)[nH]1)C(C)C` [2(13)•2HCl, [(S)-1-((S)-2-{5-[6-(4-{2-[(S)-1-((R)-2-Methoxycarbonylamino-2-phenyl-acetyl)-pyrrolidin-2-yl]-3H-imidazol-4-yl}-buta-1,3-diynyl)-[1,1′;4′,1″]terphenyl-3-yl]-1H-imidazol-2-yl}-pyrrolidine-1-carbonyl)-2-methyl-propyl]-carbamic acid methyl ester dihydrochloride] has an inhibition at 96 h [1] of 24%, an EC50 (HCV gT1b replicon; [2]) of 1.61 pM and an EC50 (HCV gT1b replicon; [3]) of 14.4 pM.
`COC(=O)N[C@H](C(=O)N1CCC[C@H]1c1ncc(-c2ccc(C#CC#Cc3cnc([C@@H]4CCCN4C(=O)[C@H](NC(=O)OC)c4ccccc4)[nH]3)c(-c3ccc(N4CCN(C)CC4)cc3)c2)[nH]1)C(C)C` [2(15)•2HCl, [(S)-1-((S)-2-{5-[4′-(4-Methyl-piperazin-1-yl)-6-(4-{2-[(S)-1-((R)-2-methoxycarbonylamino-2-phenyl-acetyl)-pyrrolidin-2-yl]-3H-imidazol-4-yl}-buta-1,3-diynyl)-biphenyl-3-yl]-1H-imidazol-2-yl}-pyrrolidine-1-carbonyl)-2-methyl-propyl]-carbamic acid methyl ester tetrahydrochloride] showed an inhibition at 96 h [1] of 82%, a CC50 at 96 h ([1]; Huh7 human hepatoma cells, read-out: Cytotox gT1b 10% FBS CC50) of 16200 nM and an EC50 (HCV gT1b replicon; [2]) of 3.65 pM. The EC50 (HCV gT1b replicon; [3]) was 23.9 pM.
Molecule `COC(=O)N[C@H](C(=O)N1CCC[C@H]1c1ncc(-c2ccc(C#CC#Cc3cnc([C@@H]4CCCN4C(=O)[C@H](NC(=O)OC)c4ccccc4)[nH]3)c(-c3cccnc3)c2)[nH]1)C(C)C` [2(16)•2HCl, [(S)-1-((S)-2-{5-[4-(4-{2-[(S)-1-((R)-2-Methoxycarbonylamino-2-phenyl-acetyl)-pyrrolidin-2-yl]-3H-imidazol-4-yl}-buta-1,3-diynyl)-3-pyridin-3-yl-phenyl]-1H-imidazol-2-yl}-pyrrolidine-1-carbonyl)-2-methyl-propyl]-carbamic acid methyl ester trihydrochloride] has an inhibition at 96 h [1] of 32%, an EC50 (HCV gT1b replicon; [2]) of 4.7 pM and an EC50 (HCV gT1b replicon; [3]) of 36.2 pM.
In the case of `COC(=O)N[C@H](C(=O)N1CCC[C@H]1c1ncc(-c2ccc(C#CC#Cc3cnc([C@@H]4CCCN4C(=O)[C@H](NC(=O)OC)c4ccccc4)[nH]3)c(Sc3ccccc3)c2)[nH]1)C(C)C` [2(20)•2HCl, [(S)-1-((S)-2-{5-[4-(4-{2-[(S)-1-((R)-2-Methoxycarbonylamino-2-phenyl-acetyl)-pyrrolidin-2-yl]-3H-imidazol-4-yl}-buta-1,3-diynyl)-3-phenylsulfanyl-phenyl]-1H-imidazol-2-yl}-pyrrolidine-1-carbonyl)-2-methyl-propyl]-carbamic acid methyl ester dihydrochloride], the inhibition at 96 h [1] is reported as 43%, the EC50 (HCV gT1b replicon; [2]) is reported as 1.7 pM and the EC50 (HCV gT1b replicon; [3]) is reported as 9.02 pM.
